In patent publication US20180085392A1, “CYCLODEXTRIN COMPOUNDS FOR THE PREVENTION AND TREATMENT OF AGING” (SENS RESEARCH FOUNDATION, INC., priority 2015, published 2018):
Values joined by “and” are separate entries in the source; they are usually repeats but may differ in a detail not shown here. Equal entries are not always repeated.

Tests used:
[1] = system: human skin cells (human fibroblast cells); test: Flow cytometry of non-bisretinoid lipofuscin content per cell; type: cell-based; details: for total non-bisretinoid lipofuscin content, Average / total non-bisretinoid lipofuscin content, individual samples 1-4: 2HPβCD for five days
From the text: Table 3 and FIG. 4 presents data obtained from the treatment of human fibroblast cells with 10 rng/ml 2HPβCD for five days.
The values of Table 3 represent total non-bisretinoid lipofuscin content measured in fluorescent units per cell using a BD FACSCANTO™ II flow cytometer (BD Biosciences, San Jose, Calif.). Measurements were made with a 488 nm blue argon laser with a 530/30 nm FITC band pass filter. The total cell population size for each individual sample measurement was n>15,000 cells.

fibroblasts [2] = test: Confocal microscopy of lipofuscin in fibroblasts; type: cell-based; details: after 8 days (FIG. 5)
From the text: FIG. 5 provides representative confocal photomicrographs wherein the accumulation of lipofuscin in fibroblasts that were either treated with HPβCD or were not treated with HPβCD was fluorescently imaged over the course of 8 days.

THP-1 cells = test: Acridine orange uptake assay for lysosomal membrane permeabilization; type: cell-based
Method: To prepare FIG. 3A-B, THP-1 cells were exposed to different LDL treatments over 7 days and then assessed for lysosomal membrane permeabilization using an acridine orange uptake assay. In FIG. 3A: Acridine orange was excited at 488 nm and emissions recorded at 633 and 520 nm. Higher signal intensities at 520 nm and lower intensities at 633 nm were indicative of lysosomal instability. 7KC-LDL induced lysosomal membrane permeabilization that was attenuated by HβCD that was added to samples on day 6. In FIG. 3B: Flow cytometry signal are presented as intensities as a percent of control (normal LDL-treated). […] Although both the 633 nm and 520 nm signal intensities decreased after HβCD amendment for oxLDL and 7KC-LDL, the decrease in the 520 nm signal was of greater magnitude, thereby indicating increased lysosomal stability.

[3] = system: lipofuscin loaded cells (PC cells) (human skin fibroblasts); test: Autofluorescence of lipofuscin loaded cells (removal of pre-existing lipofuscin); type: cell-based; details: PC cells treated day 5 to day 10 and further 48 hours; untreated 13%; p 0.05
Method: FIG. 6 provides representative quantified data of the autofluorescence of lipofuscin loaded cells (PC cells) (human skin fibroblasts, Coriell Cell Repositories, Catalog #GM00498) either untreated or treated with CD in order to track the removal of lipofuscin already present within the PC cells. To perform the assay, PC cells were allowed to grow for 5 days, and the PC cells were treated such that lipofuscin was produced only from day 1 through […]. After 5 days, one population of cells (“treated population”, PC+cyclodextrin in FIG. 6) was treated with cyclodextrin from day 5 to day 10, whereas a second population of cells (“untreated population”, PC only in FIG. 6) remained untreated from day 5 to day 10. On day 10, lipofuscin levels were measured for both cell populations. Following this measurement, the untreated population was placed in media only for 48 hours whereas the treated population was placed in media containing cyclodextrin for 48 hours. 48 hours following this transfer of the cell populations to their respective media, the lipofuscin levels of both the untreated and treated populations were again measured. […] The p-value comparing the percentage differences between the treated and untreated populations was 0.05. […]

fibroblasts [4] = test: Fluorescence imaging of native lipofuscin in fibroblasts; type: cell-based; details: for native lipofuscin autofluorescence versus untreated cells: fibroblasts maintained 16 days, cyclodextrin during days 1-8 (FIG. 7A-B)
Method: Healthy fibroblasts were passaged (˜P25) and grown to confluency in media. The cells in FIG. 7A (“untreated”) were maintained for 16 days; likewise, the cells in FIG. 7B (“treated”) were maintained for 16 days, however, cyclodextrin was added to the treated cells during days 1-8. Following the 16 day period of cell maintenance, lipofuscin levels were observed using fluorescence imaging as lipofuscin appears as a bright red autofluorescent material during fluorescence-based imaging. […] In order to ascertain whether or not the untreated or treated fibroblasts appeared healthy after the 16 day period of maintenance, both the untreated and treated fibroblasts were imaged with 60× magnification using light microscopy.

human skin fibroblasts = test: CCK-8 cell viability assay; type: cell-based; details: days 4, 7 and 10; NC+CD and T versus NC and PC
Method: In order to determine whether cells were still viable when treated with cyclodextrin, a CCK-8 assay was performed on cells (human skin fibroblasts, Coriell Cell Repositories, Catalog #GM00498) over the course of a 10 days period (FIG. 8). On each day 4, day 7, and day 10, the viability of the cells was ascertained through a CCK-8 assay whereby colorimetric change was indicative of change in the cell viability status. The cell populations tested on day 4, day 7, and day 10 were healthy negative control cells (NC), healthy cells treated with cyclodextrin (NC+CD), lipofuscin loaded cells (PC), and lipofuscin loaded cells treated with cyclodextrin (T). […] FIG. 8 also presents blanks that were used as controls (the blanks appear circled in red in FIG. 8).

TFEB = test: RT-PCR analysis of major lysosome genes; type: cell-based; details: NC w/CD and PC w/CD at day 10 compared to PC
Method: (§1) To address the mechanisms by which cyclodextrin treatment can remove lipofuscin from cells, a RT-PCR analysis of major lysosome genes was performed (FIG. 9). Healthy cells treated with cyclodextrin (“NC w/CD”), lipofuscin loaded cells (“PC”), and lipofuscin loaded cells treated with cyclodextrin (“PC w/CD”) were maintained for 10 days. Following the 10 day period, RT-PCR was performed on each cell population in order to ascertain the regulation status of the major lysosome genes ULK1, TFEB, and HMOX.

ULK1 = test: RT-PCR analysis of major lysosome genes; type: cell-based; details: NC w/CD and PC w/CD at day 10 compared to PC
Method: as §1

[5] = system: cholesterol present in a cell population; test: Filipin staining of cellular cholesterol; type: cell-based; details: for cholesterol content of cells by filipin stain: after 4 days of maintenance, 100× (FIG. 11A-D)
Method: To further address the mechanism by which cyclodextrin treatment can decrease the concentration of lipofuscin in cells, filipin staining experiments were performed (FIG. 10A-D, FIG. 11A-D, and FIG. 12A-D). Filipin stain can be used to visualize the cholesterol present in a cell population. FIG. 10A and FIG. 10C provide representative photomicrographs of two different cell populations before confluency. Four days after the time the micrographs in FIG. 10A and FIG. 10C were produced, a filipin stain was applied to both cell populations (FIG. 10B and FIG. 10D), however, in the case of FIG. 10D, the cell population was treated with cyclodextrin for 3.5 hours before the filipin staining procedure. […] In order to measure the effects of long term cyclodextrin treatment, untreated healthy cells (NC), healthy cells treated with cyclodextrin (NC w/CD), untreated cells loaded with lipofuscin (PC), and cells loaded with lipofuscin and treated with cyclodextrin (PC w/CD) were filipin stained and imaged at 100× magnification after 4 days of maintenance (FIG. 11A-D) and were filipin stained and imaged at 200× magnification after 9 days of cell maintenance (FIG. 12A-D).

[6] = system: NC and PC cell populations; test: Cell survival after exposure to lysomotropic agent MSDH; type: cell-based; details: for cell survival after MSDH: 45 μM MSDH for 42 hours; for cell death after MSDH: 55 μM MSDH for 42 hours
Method: To further elucidate the mechanism by which cyclodextrin can decrease the concentration of lipofuscin in cells, an assay in which the lysomotropic agent MSDH was administered to cells in order to measure the effect of cyclodextrin administration on cellular health post-MSDH treatment was performed (FIG. 13A-D and FIG. 14A-D). FIG. 13A-D provides representative photomicrographs of NC, PC, NC w/CD, and PC w/CD cell populations after 42 hours of exposure to 45 μM of MSDH. […] FIG. 14A-D provides representative photomicrographs of NC (FIG. 14A), PC (FIG. 14B), NC w/CD (FIG. 14C), and PC w/CD (FIG. 14D) cell populations, respectively, after the populations were exposed to an increased level of MSDH for an increased […] (55 μM for 42 hours). […] The results of FIG. 14A-D were indicative of different degrees of lysosomal membrane cholesterol composition change pending cyclodextrin treatment and lipofuscin levels, with the aged lipofuscin loaded cells treated with cyclodextrin being the most resistant to MSDH treatment (FIG. 14D).

cultured cells = details: cited from earlier work
[7] = Aged Human Skin Cells + 2-HPCD (Test)
[8] = Human Skin Cells + 2-HPCD (Negative Control + Drug)

## 2-hydroxypropyl-β-cyclodextrin [HPβCD]
[1]; [7]
  total non-bisretinoid lipofuscin content, Average: 6131 fluorescent units per cell
  total non-bisretinoid lipofuscin content, individual samples 1-4: 6278 fluorescent units per cell and 6453 fluorescent units per cell and 5982 fluorescent units per cell and 5809 fluorescent units per cell
[1]; [8]
  total non-bisretinoid lipofuscin content, Average: 2600 fluorescent units per cell
  total non-bisretinoid lipofuscin content, individual samples 1-4: 2552 fluorescent units per cell and 2564 fluorescent units per cell and 2638 fluorescent units per cell and 2647 fluorescent units per cell
[1]; aged human skin cells, 5-day treatment (FIG. 4)
  lipofuscin levels by flow cytometry fluorescence (in words): decreased
[1]; aged human skin cells, 5-day treatment, p<0.00001
  reduction of non-bisretinoid lipofuscin: 31.4%
Fibroblasts [2]
  lipopigment accumulation (fluorescence) versus untreated fibroblasts: lower lipopigment accumulation
THP-1 cells; LDL treatments over 7 days, HβCD added on day 6 (FIG. 3A)
  lysosomal destabilization/permeability caused by 7-ketocholesterol (7KC-LDL): attenuated
THP-1 cells; nLDL, oxLDL and 7KC-LDL (FIG. 3B)
  633 nm/520 nm ratio of acridine orange signal: improved
[3]
  decrease in autofluorescence from day 10 to day 12: 23%
Fibroblasts [4]; after 16 day period, 60× magnification (FIG. 7C-D)
  appearance of treated fibroblasts by light microscopy: appeared to be healthy
Fibroblasts [4]
  native lipofuscin autofluorescence versus untreated cells: visibly decreased
Fibroblasts [4]; listed as cyclodextrin
  native lipofuscin autofluorescence versus untreated cells: significantly reduced
Human skin fibroblasts
  cell viability, colorimetric change in CCK-8 assay: no visible colorimetric difference
TFEB
  regulation of TFEB: no upregulation
ULK1
  regulation of ULK1: no upregulation
[5]
  cholesterol content of cells by filipin stain: increased
[5]; listed as cyclodextrin
  cholesterol content of cells by filipin stain: reduction of the cholesterol content
[5]; long term treatment, after 9 days of maintenance, 200× (FIG. 12A-D)
  overall cellular levels of cholesterol by filipin stain: increase the overall cellular levels of cholesterol
[5]; treated for 3.5 hours before staining (FIG. 10D vs 10B)
  total cholesterol by filipin stain: reduction in total cholesterol
[6]; NC w/CD (healthy cells), untreated NC killed
  cell survival after MSDH: able to survive
[6]; NC w/CD (healthy cells), untreated NC complete death
  cell death after MSDH: moderate death
[6]; PC w/CD (lipofuscin loaded cells)
  cell survival after MSDH: able to survive
[6]; PC w/CD (lipofuscin loaded cells), untreated PC moderate death
  cell death after MSDH: no death

## methyl-β-cyclodextrin [MβCD]
Cultured cells
  efficiency of cholesterol removal compared with β-cyclodextrin: more efficient
